# In US11827917B1, “Methods for the conversion of fermentable sugars to ethanol” (Colorado State University Research Foundation, priority 2020, dated 2023):
# “And” between values parts separate entries of the source, which are not always exact repeats. Identical values can stand only once.
# Key:
# [1] = test system: S. cerevisiae JAY270; test: Immobilized yeast cells, batch cultivation on D. armatus hydrolysate; assay type: cell-based, Saccharomyces cerevisiae; conditions: 0.2%; for EtOH yield / EtOH yield % Δ from control: 24 hours
# Experimental: S. cerevisae JAY270 cells were precultured in 600 mL YPD medium at 30° C. overnight and collected by centrifuging at 3000×g for 10 min at 4° C. The cell pellets were washed twice by resuspending in 0.8% NaCl and centrifuged to remove any medium residue. Then, the cells were resuspended in 50 mL 0.8% NaCl and mixed with the 4% sodium alginate solution to obtain the final sodium alginate concentration of 3%. The mixture was dropped with a syringe aseptically into sterilized 2% CaCl2·2H2O on ice to form spheres (“beads”). The cell-immobilized beads were kept in the CaCl2) solution at 4° C. until use.
# The immobilized cells were incubated in YPD medium with 20 g/L glucose overnight at 30° C. to activate the immobilized cells. For each replicate test, 25 mL of D. armatus hydrolysate obtained from NREL was mixed with 15 mL beads and transferred into a 50 mL serum bottle. All serum bottles were incubated in a shaker at 150 rpm and 30° C. Samples were collected at 0, 12, and 24 h. The concentrations of sugars and ethanol in the samples were analyzed by HPLC.
# To test the effects of yield-increasing chemicals on the immobilized cells fermentation, 0.2% PheOH or TrpOH was added in the D. armatus hydrolysate obtained from NREL in serum bottles respectively (batch growth). PheOH was directly added into the hydrolysate medium. TrpOH was dissolved in DMSO at 20%, then added into the hydrolysate to achieve the desired final concentration. The same amount of DMSO was added into the control cultivations. S. cerevisae JAY270 cells were immobilized in calcium alginate. The immobilized cell beads were incubated in YPD medium overnight at 30° C. to activate the immobilized cells. Twenty-five mL of D. armatus hydrolysate was mixed with 15 mL immobilized cell beads (three biological replicates in each treatment) and incubated at 30° C. The ethanol yield was calculated at 24 hours. The content of glucose and ethanol in samples was analyzed using HPLC.
# [2] = test system: S. cerevisiae JAY 270; test: 1-L batch bioreactor fermentation, time course; assay type: cell-based, Saccharomyces cerevisiae; conditions: for Biomass Yield / Biomass yield % change vs. control / EtOH yield / EtOH yield % change vs. control / Glycerol yield / Glycerol yield % change vs. control: 1-L bioreactor, 24 hours; for Biomass yield, lower in comparison to control: addition in the fermentation medium
# Experimental: Yeast strain: S. cerevisiae JAY 270, as in Example 1. Inocula for bioreactor experiments with PheOH and TrpOH S. cerevisiae JAY 270 were prepared by culturing the yeast in 100 mL of YPD medium in 200-mL serum bottles overnight in a shaker at 30° C. and 200 rpm. The cells were collected by centrifuging 10 min at 4000×g and 4° C. The cell pellet was washed twice using sterile 0.8% (w/v) NaCl solution. Finally, the cell pellet was resuspended in about 15 mL of 0.8% (w/v) NaCl.
# Procedure: Fermentations were carried out in two Eppendorf BioFlo 115 bioreactors containing 1 L sterile YNB medium with 20 g/L glucose (Difco Yeast Nitrogen Base, catalog number 239210). The prepared yeast cells were inoculated in the bioreactor vessels to obtain an initial yeast cell concentration of OD600≈0.1. The fermentation was conducted at pH 5.5, 30° C., and 200 rpm agitation. Ultrapure N2 was sparged at 0.1 standard liters per minute in the bioreactor vessels to maintain anaerobic conditions. Samples were collected at different time points to monitor cell, glucose, and ethanol concentrations.
# (§1) For experiments with added PheOH, 2.0 mL of PheOH stock solution was added to one of the two vessels when the OD600 reached 1.0 to achieve a final concentration of 0.2% (w/v). In the serum bottle tests, TrpOH had stronger effects on yeast cell growth than PheOH at the same tested concentration. A study in serum bottles was then conducted to determine the TrpOH concentration that would have a similar growth inhibitory effect. […] Thus, for bioreactor experiments on the effects of TrpOH, the TrpOH was added at 0.12%. Since TrpOH was dissolved in DMSO, the same concentration of DMSO was added in the control bioreactor at the same time. All other bioreactor conditions were the same as in the PheOH test.
# Samples were collected from the bioreactors every hour post-addition for 6 h, and again after 24 hours of cultivation. Each experiment was repeated in triplicate.
# [3] = test system: S. cerevisiae JAY 270; test: Continuous two-column immobilized cell bioreactor in YPD medium; assay type: cell-based, Saccharomyces cerevisiae; conditions: Phase 2, 0.2% PheOH in feed
# Source text: The immobilized cell reactor system consisted of two glass cylindrical columns, a vessel with agitation containing fermentation medium (controlled temperature, pH, and dissolved oxygen), and a pump for delivery of the feed to the column. The glass column had dimensions of OD=32, ID=29, and L=160 mm; screens were placed above and below the alginate bead layer to retain the cells in the column. YPD medium with 0.6 g/L CaCl2·2H2O was used in the continuous fermentation. Two columns (a well-mixed reactor column and a packed-bed column) were used in this test (FIG. 5). The total volume of immobilized cells used to fill the column was […] and the medium volume was 20 mL in each column. The total medium volume in the system was 60 mL, including the medium in both columns and in the vessel. The flow rate of fresh medium was 2.3 mL/min.
# The system was first fed with YPD medium for 20 hours to activate the immobilized cells. After 20 hours, samples were collected at different times points over 24 hours from both Column 1 (well-mixed reactor) and the entire system. Then YPD medium containing 0.2% PheOH was used to replace the YPD medium for another 26 hours. After that, the medium was changed back to YPD medium for 6 hours. The content of glucose and ethanol in samples was analyzed using HPLC.
# Owing to the limited supply of algal hydrolysate, the test was conducted using YPD medium. The test was conducted with 0.2% PheOH as the growth inhibitor. For 20 hours prior to the start of the experiment, the system was fed YPD medium without PheOH to ensure that the cells were fully active following their immobilization. The experiment was then conducted with three phases: • (1) 24 hours, during which the feed was YPD medium without PheOH. The start of this phase represented time zero of the experiment. • (2) 26 hours, during which the feed was YPD medium with 0.2% PheOH. • (3) 6 hours, during which the feed was YPD medium without PheOH.
# [4] = test system: yeast cell growth; test: Serum-bottle study of the TrpOH concentration with similar growth inhibition as PheOH; assay type: cell-based; conditions: serum bottles, data not shown
# Experimental: as §1
smiles,measurement,setting,value
"OCCc1ccccc1 [PheOH, 2-phenylethanol]",EtOH yield,"[1]; D. armatus hydrolysate, batch",0.46 g/g
same,EtOH yield % Δ from control,"[1]; D. armatus hydrolysate, batch",1.54%
same,"Glycerol concentration, decrease",[2]; PheOH 0.2%,21%
same,Biomass Yield,[2]; PheOH 0.2% (w/v),0.063 ± 0.008 g/g
same,Biomass yield % change vs. control,[2]; PheOH 0.2% (w/v),−23 ± 5 %
same,EtOH yield,[2]; PheOH 0.2% (w/v),0.435 ± 0.003 g/g
same,EtOH yield % change vs. control,[2]; PheOH 0.2% (w/v),5.3 ± 0.8 %
same,Glycerol yield,[2]; PheOH 0.2% (w/v),0.071 ± 0.001 g/g
same,Glycerol yield % change vs. control,[2]; PheOH 0.2% (w/v),−20 ± 2 %
same,EtOH yield % change vs. control,"[2]; PheOH 0.2% (w/v), listed as 2-phenylethanol",6%
same,"Final cell concentration, lower than control","[2]; PheOH 0.2%, 24 h",22%
same,Glucose remaining,"[2]; PheOH 0.2%, after 12 h (control completely consumed)",about 2 g/L
same,"Biomass yield, lower in comparison to control",[2],about 20%
same,Ethanol productivity,[3]; C1,21 g/L·h
same,Ethanol yield,[3]; C1,about 0.45
same,Ethanol yield,[3]; C1+C2,~0.43
same,Glucose conversion,[3]; C1+C2,91%
same,Glucose conversion,[3]; after C1,60%
same,Ethanol productivity,[3]; whole system,21 g/L·h
"OCCc1c[nH]c2ccccc12 [TrpOH, tryptophol]",Concentration with similar growth inhibition as PheOH at 16.4 mM,[4],7.5 mM
same,Concentration with similar growth inhibition as PheOH at 0.2% (w/v),[4],0.12 % (w/v)
same,Ethanol yield higher than the value for free cell fermentation of D. armatus hydrolysate,[1],about 20%
same,Ethanol yield,"[1]; D. armatus hydrolysate, batch",0.49 g ethanol/g sugar
same,EtOH yield,"[1]; D. armatus hydrolysate, batch",0.49 g/g
same,EtOH yield % Δ from control,"[1]; D. armatus hydrolysate, batch",11.4% and 11.42%
same,Biomass Yield,[2]; TrpOH 0.12% (w/v),0.063 ± 0.008 g/g
same,Biomass yield % change vs. control,[2]; TrpOH 0.12% (w/v),−28 ± 5 %
same,EtOH yield,[2]; TrpOH 0.12% (w/v),0.420 ± 0.012 g/g
same,EtOH yield % change vs. control,[2]; TrpOH 0.12% (w/v),6.5 ± 3.1 %
same,Glycerol yield,[2]; TrpOH 0.12% (w/v),0.070 ± 0.004 g/g
same,Glycerol yield % change vs. control,[2]; TrpOH 0.12% (w/v),−17 ± 2 %
same,EtOH yield % change vs. control,"[2]; TrpOH 0.12% (w/v), listed as tryptophol",10%
same,"Final cell concentration, lower than control","[2]; TrpOH 0.12%, 24 h",about 22%
same,"Glycerol concentration, lower than control","[2]; TrpOH 0.12%, 24 h",17%
same,"Final cell concentration, lower than control","[2]; TrpOH 0.12%, 24 h, listed as tryptophol",22%
same,"Biomass yield, lower in comparison to control",[2],about 20%
